US5696151A, “Compounds useful for the inhibition of the replication of HIV-1 and HIV-1 mutants” (priority 1995, dated 1997)
Values after ≈ are worked out from the molar mass of the structure shown.

How the values were obtained:
Type in all cases: cell-based
HIV-1/106-Ala = test: Inhibition of HIV-1 induced syncytium formation in CEM cells, RT mutant 106-Ala; settings: Human immunodeficiency virus 1, CCRF-CEM, 96 h, Table 2B, day 4, averages of 2 to 3 independent experiments, read-out: Antiviral Activity of Comparative Compounds EC50, 106-Ala
Text: (§1) CEM cells were obtained from the American Tissue Cell Culture Collection (Rockville, Md.). HIV-1(IIIB) was originally obtained from the culture supernatant of persistently HIV-1-infected H9 cells and was provided by R. C. Gallo and M. Popovic (National Cancer Institute, National Institutes of Health, Bethesda, Md.). […] 67: 5353-5359 (1993); HIV-1/Lys-138 ("Lys-138") was selected for resistance against TSAO-m^3T as described in Balzarini et al, Virology 192: 246-253 (1993) and Balzarini et al, Proc. Nat. Acad. Sci. USA 90: 6952-6956 (1993); HIV-1/181-Cys ("181-Cys") was selected for resistance against pyridinone L-697,661 as described in Balzarini et al, Virology 192: 246-253 (1993); and HIV-1/188-His ("188-His") was selected for resistance against HEPT as described in Balzarini et al, Mol. Pharmocol. 44: 694-701 (1993). 188-His was then further converted to HIV-1/188-Leu "188-Leu") upon further passage in cell culture in the absence of the HEPT.
(§2) CEM cells were suspended at ≈300,000 cells per ml of culture medium and infected with approximately 100 CCID50 (CCID50 being the 50% cell culture infective dose) of HIV-1(IIIB) or one of the HIV-1 RT mutant strains described above. Then 100 μl of the infected cell suspensions was added to 200 μl microtiter plate wells containing 100 μl of appropriate serial (5-fold) dilutions of the test compounds. The inhibitory effect of the test compounds on HIV-1 induced syncytium formation in CEM cells was examined microscopically on day 4 post infection.

HIV-1/Lys-138 = test: Inhibition of HIV-1 induced syncytium formation in CEM cells, RT mutant 138-Lys; settings: Human immunodeficiency virus 1, CCRF-CEM, 96 h, Table 2B, day 4, averages of 2 to 3 independent experiments, read-out: Antiviral Activity of Comparative Compounds EC50, 138-Lys
Text: as §1, §2

in vitro = settings: human, cem cells, CC50 (50% cytostatic concentration), Table 2B; CEM cell proliferation; averages of 2 to 3 independent experiments
Text: as §1
^b 50% cytostatic concentration (i.e., compound concentration require
to inhibit CEM cell proliferation by 50%)

HIV-1/100-Ile = test: Inhibition of HIV-1 induced syncytium formation in CEM cells, RT mutant 100-Ile; settings: Human immunodeficiency virus 1, CCRF-CEM, 96 h, Table 2B, day 4, averages of 2 to 3 independent experiments, read-out: Antiviral Activity of Comparative Compounds EC50, 100-Ile
Text: as §1, §2

HIV-1/181-Cys = test: Inhibition of HIV-1 induced syncytium formation in CEM cells, RT mutant 181-Cys; settings: Human immunodeficiency virus 1, CCRF-CEM, 96 h, Table 2B, day 4, averages of 2 to 3 independent experiments, read-out: Antiviral Activity of Comparative Compounds EC50, 181-Cys
Text: as §1, §2

HIV-1(IIIB) = test: Inhibition of HIV-1 induced syncytium formation in CEM cells, wild type; settings: Human immunodeficiency virus 1, IIIB, CCRF-CEM, 96 h, Table 2B, WT = HIV-1(IIIB), day 4, averages of 2 to 3 independent experiments, read-out: Antiviral Activity of Comparative Compounds EC50, WT
Text: as §1, §2

Compound | EC50 (HIV-1/106-Ala) [µg/mL] | EC50 (HIV-1/Lys-138) [µg/mL] | CC50 (in vitro) [µg/mL] | EC50 (HIV-1/100-Ile) [µg/mL] | EC50 (HIV-1/181-Cys) [µg/mL] | EC50 (HIV-1(IIIB)) [µg/mL]
C#CCON=Cc1cc(NC(=S)c2ccoc2C)ccc1Cl [Compound 112] | 0.35 (≈ 1.05 µM) | 0.5 (≈ 1.5 µM) | 10 (≈ 30 µM) | 0.75 (≈ 2.25 µM) | 0.8 (≈ 2.4 µM) | 0.025 (≈ 0.0751 µM)
Cc1sccc1C(=S)Nc1ccc(Cl)c(C=NOC(C)(C)C)c1 [Compound 61] | 0.2 (≈ 0.545 µM) | 0.05 (≈ 0.136 µM) | 12 (≈ 32.7 µM) | 0.2 (≈ 0.545 µM) | 0.2 (≈ 0.545 µM) | 0.01 (≈ 0.0273 µM)
Cc1ccoc1C(=S)Nc1ccc(Cl)c(C(=O)OC(C)C)c1 [Compound 87] | 1 (≈ 2.96 µM) | 0.55 (≈ 1.63 µM) | 15 (≈ 44.4 µM) | 3 (≈ 8.88 µM) | 0.53 (≈ 1.57 µM) | 0.02 (≈ 0.0592 µM)
COc1ccc(NC(=S)c2ccoc2C)cc1CC(=O)OC(C)C [Compound 57] | 0.2 (≈ 0.576 µM) | 0.08 (≈ 0.23 µM) | > 100 | 1.3 (≈ 3.74 µM) | 0.5 (≈ 1.44 µM) | 0.009 (≈ 0.0259 µM)
Cc1occc1C(=S)Nc1ccc(Cl)c(C(=O)OCC2CC2)c1 [Compound 105] | 0.2 (≈ 0.572 µM) | 0.085 (≈ 0.243 µM) | 6.7 (≈ 19.2 µM) | 0.4 (≈ 1.14 µM) | 0.07 (≈ 0.2 µM) | 0.015 (≈ 0.0429 µM)
Cc1occc1C(=S)Nc1ccc(Cl)c(C(=O)OC(C)C)c1 [Compound 49] | 0.6 (≈ 1.78 µM) | 0.6 (≈ 1.78 µM) | 5.2 (≈ 15.4 µM) | 0.6 (≈ 1.78 µM) | 0.2 (≈ 0.592 µM) | 0.007 (≈ 0.0207 µM)
Cc1ccoc1C(=S)Nc1ccc(Cl)c(C=NOC(C)C)c1 [Compound 94] | 0.5 (≈ 1.48 µM) | 0.15 (≈ 0.445 µM) | 3.1 (≈ 9.2 µM) | 0.75 (≈ 2.23 µM) | 0.6 (≈ 1.78 µM) | 0.01 (≈ 0.0297 µM)
CCC(CC)COC(=O)c1cc(NC(=S)c2ccoc2C)ccc1Cl [Compound 108] | 0.08 (≈ 0.211 µM) | 0.07 (≈ 0.184 µM) | 7 (≈ 18.4 µM) | 0.27 (≈ 0.711 µM) | 0.08 (≈ 0.211 µM) | 0.007 (≈ 0.0184 µM)
Cc1occc1C(=S)Nc1ccc(Cl)c(C(=O)OC2CCCC2)c1 [Compound 109] | 0.04 (≈ 0.11 µM) | 0.035 (≈ 0.0962 µM) | 4.3 (≈ 11.8 µM) | 0.17 (≈ 0.467 µM) | 0.045 (≈ 0.124 µM) | 0.005 (≈ 0.0137 µM)
C=CCON=Cc1cc(NC(=S)c2ccoc2C)ccc1Cl [Compound 111] | 0.085 (≈ 0.254 µM) | 0.077 (≈ 0.23 µM) | 12 (≈ 35.8 µM) | 0.5 (≈ 1.49 µM) | 0.3 (≈ 0.896 µM) | 0.007 (≈ 0.0209 µM)
O=C(OC1CCCCC1)c1cc(NC(=S)c2ccccc2)ccc1Cl [Compound 82] | 1 (≈ 2.67 µM) | 0.55 (≈ 1.47 µM) | 5.2 (≈ 13.9 µM) | 2 (≈ 5.35 µM) | 0.8 (≈ 2.14 µM) | 0.03 (≈ 0.0802 µM)
COc1ccccc1C(=S)Nc1ccc(Cl)c(C(=O)OC(C)C)c1 [Compound 90] | 6 (≈ 16.5 µM) | 0.7 (≈ 1.92 µM) | 27 (≈ 74.2 µM) | 3.5 (≈ 9.62 µM) | 5.5 (≈ 15.1 µM) | 0.19 (≈ 0.522 µM)
CC(C)OC(=O)c1cc(NC(=O)c2ccccc2)ccc1Cl [Compound 62] | 5 (≈ 15.7 µM) | 5 (≈ 15.7 µM) | 6.2 (≈ 19.5 µM) | 3.5 (≈ 11 µM) | 5.5 (≈ 17.3 µM) | 0.4 (≈ 1.26 µM)
Cc1occc1C(=S)Nc1ccc(Cl)c(C(=O)OCC(C)C)c1 [Compound 103] | 0.075 (≈ 0.213 µM) | 0.06 (≈ 0.171 µM) | 8.5 (≈ 24.2 µM) | 0.19 (≈ 0.54 µM) | 0.07 (≈ 0.199 µM) | 0.01 (≈ 0.0284 µM)
Cc1occc1C(=S)Nc1ccc(Cl)c(C=NOC(C)C)c1 [Compound 97] | ≥ 4 | 2 (≈ 5.94 µM) | 3.3 (≈ 9.8 µM) | 3.5 (≈ 10.4 µM) | 3.3 (≈ 9.8 µM) | 0.009 (≈ 0.0267 µM)
CCC(CC)OC(=O)c1cc(NC(=S)c2ccccc2N)ccc1Cl [Compound 67] | ≥ 10 | 5.5 (≈ 14.6 µM) | 29 (≈ 76.9 µM) | ≥ 10 | > 10 | 0.75 (≈ 1.99 µM)
CC(C)(C)ON=Cc1cc(NC(=S)c2ccccc2)ccc1Cl [Compound 93] | 0.1 (≈ 0.288 µM) | 0.08 (≈ 0.231 µM) | 9.7 (≈ 28 µM) | 2 (≈ 5.77 µM) | 0.7 (≈ 2.02 µM) | 0.03 (≈ 0.0865 µM)
CC(C)OC(=O)c1cc(NC(=S)c2cccs2)ccc1Cl [Compound 89] | 4 (≈ 11.8 µM) | 1.9 (≈ 5.59 µM) | 4.9 (≈ 14.4 µM) | 3 (≈ 8.83 µM) | 4 (≈ 11.8 µM) | 0.09 (≈ 0.265 µM)
